Data as given in patent US20210047324A1 (Aptinyx Inc., priority 2018, published 2021).

Key:
[1] = molecular target: T1, NMDAR2A (Homo sapiens, UniProt Q12879); experiment: NMDAR agonist assay, [3H]MK-801 binding, NMDAR2A expressing HEK cell membranes; type: biochemical; details: 50 μM glutamate
T1 construct: expressed in transfected cells; host or cells: HEK cells (membrane extract)
How it was run: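 Membranes from HEK cells (300 μg protein) preincubated 15 min with 50 μM glutamate plus compound (1×10^−15–1×10^−7 M) or 1 mM glycine, then with 0.3 μCi [3H]MK-801 for 15 min at 25° C. (nonequilibrium); filter-bound DPM, baseline-subtracted, expressed as % of 1 mM glycine; EC50 and % maximum from three-parameter fit.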

[2] = tested on: Sprague Dawley rats; experiment: Porsolt forced swim test; type: in vivo

T1 sequence (Q12879 23-1464, species assumed, other chains not shown): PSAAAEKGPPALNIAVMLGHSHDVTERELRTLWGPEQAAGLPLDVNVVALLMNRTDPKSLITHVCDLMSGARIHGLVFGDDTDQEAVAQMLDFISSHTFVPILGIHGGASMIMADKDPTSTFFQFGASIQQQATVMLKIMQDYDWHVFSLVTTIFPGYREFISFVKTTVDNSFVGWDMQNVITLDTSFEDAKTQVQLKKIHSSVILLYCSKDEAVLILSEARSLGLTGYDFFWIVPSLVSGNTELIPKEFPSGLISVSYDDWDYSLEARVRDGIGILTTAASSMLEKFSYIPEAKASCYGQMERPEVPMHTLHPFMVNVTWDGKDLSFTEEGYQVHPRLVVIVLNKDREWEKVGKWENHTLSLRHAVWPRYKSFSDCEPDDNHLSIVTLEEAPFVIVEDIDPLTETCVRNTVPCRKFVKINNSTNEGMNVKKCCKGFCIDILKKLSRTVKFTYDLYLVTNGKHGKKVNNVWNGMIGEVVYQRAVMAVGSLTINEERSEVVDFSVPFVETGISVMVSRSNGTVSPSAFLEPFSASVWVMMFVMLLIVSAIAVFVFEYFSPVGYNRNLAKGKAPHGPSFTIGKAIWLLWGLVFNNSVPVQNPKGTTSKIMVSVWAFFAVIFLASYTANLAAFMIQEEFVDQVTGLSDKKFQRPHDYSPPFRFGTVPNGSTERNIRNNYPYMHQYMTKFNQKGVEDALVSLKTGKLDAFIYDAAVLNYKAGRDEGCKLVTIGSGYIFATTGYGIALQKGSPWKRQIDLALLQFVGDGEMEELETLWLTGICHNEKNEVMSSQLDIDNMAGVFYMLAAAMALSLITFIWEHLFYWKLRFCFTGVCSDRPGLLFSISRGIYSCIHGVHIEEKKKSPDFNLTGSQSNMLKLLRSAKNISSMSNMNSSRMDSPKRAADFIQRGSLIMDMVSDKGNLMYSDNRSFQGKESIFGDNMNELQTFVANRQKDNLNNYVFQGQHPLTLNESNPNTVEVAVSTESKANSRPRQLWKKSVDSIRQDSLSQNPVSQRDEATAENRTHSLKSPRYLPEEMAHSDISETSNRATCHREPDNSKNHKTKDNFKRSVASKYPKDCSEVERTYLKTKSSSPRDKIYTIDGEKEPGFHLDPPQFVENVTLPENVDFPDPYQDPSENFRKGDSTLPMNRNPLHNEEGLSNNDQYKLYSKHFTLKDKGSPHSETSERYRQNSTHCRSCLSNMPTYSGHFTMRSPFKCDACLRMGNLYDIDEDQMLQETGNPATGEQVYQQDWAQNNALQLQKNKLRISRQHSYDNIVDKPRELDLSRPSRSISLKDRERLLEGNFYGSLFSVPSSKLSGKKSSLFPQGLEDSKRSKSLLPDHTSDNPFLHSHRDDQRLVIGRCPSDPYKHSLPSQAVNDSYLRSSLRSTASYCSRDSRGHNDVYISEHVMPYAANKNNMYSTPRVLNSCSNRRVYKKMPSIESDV

O=C1NCC=CC[C@]12CCCN2 [GA, (R)-1,7-diazaspiro[4.6]undec-9-en-6-one] was tested, and the EC50 ([1]; read-out: NMDAR2A B: log EC50 (converted)) was at least 1 nM, the Emax ([1]; 0.25 h, relative to 1 mM glycine, read-out: NMDAR2A A: % maximal [3H]MK-801 binding relative to 1 mM glycine) was under 100% and the “% reduction in float time” value ([2]; 1 wk post-dose, 0.00001 mg/kg) was 55%. The Significance vs. vehicle ([2]; 1 wk post-dose, 0.00001 mg/kg) was “Yes”, the “% reduction in float time” value ([2]; 1 wk post-dose, 0.001 mg/kg) was 71% and the Significance vs. vehicle ([2]; 1 wk post-dose, 0.001 mg/kg) was “Yes”. The “% reduction in float time” value ([2]; 1 wk post-dose, 0.1 mg/kg) was 72%, the Significance vs. vehicle ([2]; 1 wk post-dose, 0.1 mg/kg) was “Yes” and the “% reduction in float time” value ([2]; 1 wk post-dose, 10.0 mg/kg) was 44%. For the same compound, the Significance vs. vehicle ([2]; 1 wk post-dose, 10.0 mg/kg) was “Yes”, the “% reduction in float time” value ([2]; 1 h post-dose, 0.00001 mg/kg) was 29% and the Significance vs. vehicle ([2]; 1 h post-dose, 0.00001 mg/kg) was “No”. For the same compound, the “% reduction in float time” value ([2]; 1 h post-dose, 0.001 mg/kg) was 58%, the Significance vs. vehicle ([2]; 1 h post-dose, 0.001 mg/kg) was “Yes” and the “% reduction in float time” value ([2]; 1 h post-dose, 0.1 mg/kg) was 67%. For the same compound, the Significance vs. vehicle ([2]; 1 h post-dose, 0.1 mg/kg) was “Yes”, the “% reduction in float time” value ([2]; 1 h post-dose, 10.0 mg/kg) was 50% and the Significance vs. vehicle ([2]; 1 h post-dose, 10.0 mg/kg) was “No”. The “% reduction in float time” value ([2]; 24 h post-dose, 0.1 mg/kg) was 64% and the Significance vs. vehicle ([2]; 24 h post-dose, 0.1 mg/kg) was “Yes”.
